Results on 6 compounds are retold here after patent US8440669B2, “Pharmaceutical composition for prevention and treatment of diabetes or obesity comprising a compound that inhibits activity of dipeptidyl peptidase-IV, and other antidiabetic or antiobesity agents as active ingredients” (Dong-A Pharmaceutical Co. Ltd., priority 2008, dated 2013).

Values joined by “and” are separate entries in the source; they are usually repeats but may differ in a detail not shown here. Equal values may be shown once.

What all share (format): in vivo
Assay [1] has as its system blood glucose. The assay is described as follows: OGTT after 4-week administration in diet-induced obesity mice (rimonabant combination). As to conditions: obese mice. On the procedure:
(§1) In order to examine synergistic effects by repeated administration of a compound prepared in Preparation Example 1 and cannabinoid receptor-1 antagonist, effects of 4-week administration to obese mice on an OGTT blood glucose change curve and on fat mass were evaluated. Diet-induced obesity mice obtained by supplying experimental mice (C57BL/6 mice) with high fat fodder (60 kcal % fat, Research Diets, D12492) for 5 month were used as experimental subjects. 0.5% methylcellulose (MC) was used to prepare a suspension of the compound 1 prepared in Preparation Example 1 with a composition of 0.3 mg/kg which is presumed to be a dose of minimum effective efficacy and 3 mg/kg. 0.5% MC was used to prepare a suspension of rimonabant, a cannabinoid receptor-1 antagonist with a composition of 3 mg/kg. Rimonabant has the same parent nucleus structure as a cannabinoid receptor-1 antagonist, such as Otenabant, Ibinabant, and Surinabant, and 5 mL/kg of the complex thereof was prepared in doses of (0.3 mg of a compound prepared in Preparation Example 1+3 mg of rimonabant)/5 mL and (3 mg of a compound prepared in Preparation Example 1+3 mg/kg of rimonabant)/5 mL. When the mixing ratio is 1:0.1 or less, or 1:1 or more, the dose may exceed a daily clinical dose of rimonabant or poor efficacy may occur. Thus, the mixing ratio was set at […].
Obese mice were fasted for 16 to 17 hours prior to the experiments, blood was collected from caudal veins of mice in the morning on the day of the experiment and a blood glucose level was measured with an ACCU-CHEK ACTIVE Blood Glucose Meter (Roche Diagnostics). The pharmaceutically mixed composition of the present invention was given orally 30 min prior to glucose administration (−30 min), followed by oral administration of a glucose solution (2 g/kg/10 mL) after 30 min (0 min). […] The percent inhibition value was calculated by calculating an area under curve of each group and comparing the value with that of a control group in which glucose had been administered.

Assay [2] can be described thus: Fat mass (epidydimal + retroperitoneal fat) after 4-week administration in diet-induced obesity mice. The following applies: 4 weeks; for Fat mass: HF-DIO mice (control 3.61 ± 0.20); for % reduction (fat mass): vs HF-DIO control group. On the procedure:
as §1
Experiments were performed on the experimental subject and experimental drug in the same manner as in Experimental Example 5-1, the fat mass was calculated as a sum of epidydimal fat and retroperitoneal fat, and fat mass 4 weeks after administration was measured.

Assay [3] concerns blood glucose. The assay is described as follows: Oral glucose tolerance test (OGTT), single administration in normal mice; ED30 and isobologram. As to conditions: C57BL/6 mice; for ED30 ± (SEM): dose giving 30% inhibition of OGTT blood glucose AUC, single agent. How it is done:
Laboratory mice (C57BL/6 mice) as experimental subjects were fasted for 16 to 17 hours prior to the experiments. Blood was collected from caudal veins of mice in the morning on the day of the experiment and a blood glucose level was measured with an ACCU-CHEK ACTIVE Blood Glucose Meter (Roche Diagnostics). The pharmaceutical composition of the present invention was given orally 30 min prior to glucose administration (−30 min), followed by oral administration of a glucose solution (2 g/kg/10 mL) after 30 min (0 min). Blood collection was made at designated time points—just prior to drug administration, just prior to glucose administration, and 15, 30, 60 and 90 min after glucose administration.
Effects of single administration of the individual agents on a blood glucose change curve in an oral glucose tolerance test (OGTT) were identified by percent inhibition (%) and ED30. The percent inhibition values for each treatment were generated from the area under curve (AUC) data normalized to the non-glucose challenged controls by subtracted blood glucose AUC of non-glucose challenged controls from glucose challenged groups, and comparing the value with that of a control group in which glucose has been administered.
Feasible synergistic effects of a composition at each fixed ratio were analyzed by isobologram (R. J. Tallarida et al, Life Sci. 1989, 45, 947). […] When the result of ED30mix<ED30add is established at a certain fixed ratio, the mixture has synergistic effects. ED30add was calculated from ED30 of each drug. In FIG. 1, fractions of the ED30 values of each material are present on each axis thereof. The ED30 value of the compound prepared in Preparation Example 1 only is 0.2 mg/kg and shown as value 1 in FIG. 1, and the ED30 value of metformin only is 30 mg/kg and shown as value 1 in FIG. 1. Therefore, the line combining the ED30 values of the two individual drugs indicates a simple additivity (ED30add) calculated from glucose tolerance effects at different ratios. Therefore, the points designated as A, B, C, and D in FIG. 1 with respect to each mixture studied indicate fractions of ED30 values (ED30mic) determined by actual experiments performed on a mixtures of the compound prepared in Preparation Example 1 and metformin at ratios of 9:1, 5:1, 1:1, and 1:3. The points A′, B′, C′, and D′ in FIG. 1 indicate fractions of doses (ED30add) corresponding to mixtures of the compound prepared in Preparation Example 1 and metformin at ratios of 9:1, 5:1, 1:1, and 1:3 expected under a simple additivity.
The ratios of doses actually administered to animals in each fraction were calculated by multiplying 0.2 mg/kg and 30 mg/kg which are ED30 values of the compound prepared in Preparation Example 1 and metformin, respectively with a desired ratio. Administrations were performed in the ranges of: 0.045˜0.36 mg/kg of the compound prepared in Preparation Example 1+0.75˜6 mg/kg of metformin at a ratio of 9:1, 0.042˜0.33 mg/kg of the compound prepared in Preparation Example 1+1.25˜10 mg/kg of metformin at a ratio of 5:1, 0.025˜0.2 mg/kg of the compound prepared in Preparation Example 1+[…] of metformin at a ratio of 1:1, 0.0125˜0.2 mg/kg of the compound prepared in Preparation Example 1+5.625˜45 mg/kg of metformin at a ratio of 1:3. When this is applied to a healthy adult (about 70 kg), the dose corresponds to 0.88˜25.2 mg of the compound prepared in Preparation Example 1 and 52.5˜3150 mg of metformin, and includes a daily clinical dose of metformin, which is 500˜2000 mg.

For assay [4], the system named is blood glucose. In words: OGTT, single administration in diet-induced obesity mice. As to conditions: obese mice. On the procedure:
(§2) In order to examine synergistic effects of a compound prepared in Preparation Example 1 of the present invention and metformin complex by repeated administration, effects of a single administration to obese mice on an OGTT blood glucose change curve and of a 2-week repeated administration on the percent inhibition of blood glucose were evaluated. Diet-induced obesity mice obtained by supplying experimental mice (C57BL/6 mice) with high fat fodder (60 kcal % fat, Research Diets, D12492) for 5 month were used as experimental subjects. 0.5% methylcellulose (MC) was used to prepare a suspension of the compound 1 prepared in Preparation Example 1 with a composition of 0.1 mg/kg and 0.15 mg/kg. 0.5% MC was used to prepare a suspension of metformin with a composition of 7.5 mg/kg and 15 mg/kg. […] of the complex was prepared in doses of (0.1 mg/kg of a compound prepared in Preparation Example 1+15 mg/kg of metformin)/5 mL and (0.15 mg/kg of a compound prepared in Preparation Example 1+7.5 mg/kg of metformin)/5 mL.
Obese mice were fasted for 16 to 17 hours prior to the experiments, blood was collected from caudal veins of mice in the morning on the day of the experiment and a blood glucose level was measured with an ACCU-CHEK ACTIVE Blood Glucose Meter (Roche Diagnostics). The mixed composition of the present invention was given orally 30 min prior to glucose administration (−30 min), followed by oral administration of a glucose solution (2 g/kg/10 mL) after 30 min (0 min). Blood collection was made at designated time points—just prior to drug administration, just prior to glucose administration, and 15, 30, 60 and 90 min after glucose administration. The percent inhibition value was calculated by calculating an area under curve of each group and comparing the value with that of a control group in which glucose had been administered.

The subject of assay [5] is plasma glucose. The assay is described as follows: Plasma glucose after 2-week repeated administration in diet-induced obesity mice. As to conditions: obese mice. On the procedure:
as §2

The test system of assay [6] is blood glucose. The assay is described as follows: Blood glucose after 7-day administration in db/db diabetic mice.
Procedure: In order to examine synergistic effects of a complex by a compound prepared in Preparation Example 1 of the present invention and an insulin sensitizer PPARγ agonist, the percent inhibition of blood glucose by repeated administration of the complex to db/db mice as diabetic mice was evaluated. Eight-week-old male mice (db/db mice) were used as experimental subjects. […] The dose of a compound prepared in Preparation Example 1 with respect to rosiglitazone at a fixed dose was selected at 1 mg/kg and 40 mg/kg (complex ratio 1:0.01˜1:0.4) in consideration of a complex ratio in an expected clinical dose. […] 0.5% methylcellulose (MC) was at each drug concentration to prepare suspensions. Each compound was weighed, and 0.5% methylcellulose was used to prepare 5 mL/kg of suspensions with each composition of (1 mg of the compound prepared in Preparation Example 1+0.4 mg of rosiglitazone)/5 mL and (40 mg of the compound prepared in Preparation Example 1+0.4 mg of rosiglitazone)/5 mL.
The percent inhibition value with respect to blood glucose was calculated by comparison with a control group.
The test system of assay [7] is blood glucose. In words: OGTT, single administration in C57BL/6 mice (glimepiride combination).
Procedure: In order to examine synergistic effects of a complex of a compound prepared in Preparation Example 1 of the present invention and an insulin secretagogue sulfonyl urea-series drug, the percent inhibitions of single administration OGTT blood glucose change curves by individual materials and complexes were evaluated. 8-week-old male experimental mice (C57BL/6 mice) were used and fasted for 16 to 17 hours prior to the experiments. Blood was collected from caudal veins of mice in the morning on the day of the experiment and a blood glucose level was measured with an ACCU-CHEK ACTIVE Blood Glucose Meter (Roche Diagnostics). The mixed composition of the present invention was given orally 30 min prior to glucose administration (−30 min), followed by oral administration of a glucose solution (2 g/kg/10 mL) after 30 min (0 min). Blood collection was made at designated time points—just prior to drug administration, just prior to glucose administration, and 15, 30, 60 and 90 min after glucose administration. […] In order to evaluate synergistic or additive effects by complex in the present evaluation, 0.5% methylcellulose (MC) was used to prepare a suspension with a dose of a compound prepared in Preparation Example 1 at 0.1 mg/kg, and 0.5% MC was also used to prepare a suspension with a composition of an insulin secretagogue sulfonyl urea-series drug and glimepiride at 0.02 mg/kg and 0.32 mg/kg such that a complex ratio may be included at a clinical dose expected in a fixed state of a compound prepared in Preparation Example 1. […] A complex thereof was prepared at 10 mL per kg by weighing individual compounds and mixing the compounds with each composition ((a compound prepared in Preparation Example 10.1 mg+glimepiride 0.02 mg)/10 mL and (a compound prepared in Preparation Example 10.1 mg+glimepiride 0.32 mg)/10 mL)).
Assay [8] concerns blood glucose. In words: Oral sucrose tolerance test, single administration in C57BL/6 mice (voglibose combination). On the procedure:
In order to examine synergistic effects of a compound prepared in Preparation Example 1 of the present invention and an α-glucosidase inhibitor-series drug by complexing drugs, the percent inhibition in a single administration oral sucrose tolerance test blood glucose change curve by individual materials and a complex thereof was evaluated. 8-week-old male experimental mice (C57BL/6 mice) were used as experimental subjects. The mice were fasted for 16 to 17 hours prior to the experiments. Blood was collected from caudal veins of mice in the morning on the day of the experiment and a blood glucose level was measured with an ACCU-CHEK ACTIVE Blood Glucose Meter (Roche Diagnostics). The pharmaceutically mixed composition of the present invention was given orally 30 min prior to sucrose administration (−30 min), followed by oral administration of a […] (2 g/kg/10 mL) after 30 min (0 min). Blood collection was made at designated time points—just prior to drug administration, just prior to sucrose administration, and 15, 30, 60, 90, and 120 min after sucrose administration. […] In order to evaluate synergistic or additive effects by complexes in the present evaluation, 0.5% methylcellulose (MC) was used to prepare a suspension with a compound prepared in Preparation Example 1 at a dose of 0.3 mg/kg, and 0.5% MC was also used to prepare a suspension with a composition of an α-glucosidase inhibitor and voglibose at 0.009 mg/kg and 0.054 mg/kg (complex ratio 1:0.031:0.18) such that a complex ratio may be included at a clinical dose expected in a state where a dose of a compound prepared in Preparation Example 1 was fixed.

As to `Cc1c(C(=O)NN2CCCCC2)nn(-c2ccc(Cl)cc2Cl)c1-c1ccc(Cl)cc1` [Rimonabant, rimonabant, reference compound], in assay [1] (4-week administration 3 mg/kg), the “Percent inhibition (blood glucose AUC, OGTT)” value is reported as 1.1%. For the same compound, in assay [2] (3 mg/kg), the Fat mass came out at 2.11 ± 0.31 g and the “% reduction (fat mass)” value is listed as 41.5%.

Turning to `CC(C)(C)OC[C@@H]1C(=O)NCCN1C(=O)C[C@H](N)Cc1cc(F)c(F)cc1F` [(R)-4-[(R)-3-amino-4-(2,4,5-trifluorophenyl)-butanoyl]-3-(t-butoxymethyl)piperazin-2-one], in assay [3], the “ED30 ± (SEM)” value is 0.20 mg/kg and 0.2 mg/kg and 0.20 ± 0.04 mg/kg. Moreover, the “Percent inhibition (blood glucose AUC, OGTT)” value in assay [3] (single oral dose 0.1 mg/kg) stood at 18.5%; in assay [3] (single oral dose 0.3 mg/kg), 38.7%; in assay [3] (single oral dose 1 mg/kg), 54.8%; in assay [4] (single administration 0.1 mg/kg), 2%; in assay [4] (single administration 0.15 mg/kg), 3%; in assay [7] (single oral dose 0.1 mg/kg) it was 7.7%. Moreover, the “Percent inhibition (blood glucose AUC, OGTT)” value in assay [1] (4-week administration 0.3 mg/kg) was found to be 18.2%; in assay [1] (4-week administration 3 mg/kg), 35.3%. The “Percent inhibition (plasma glucose vs control)” value in assay [5] (2-week repeated administration 0.1 mg/kg) stood at 2%; in assay [5] (2-week repeated administration 0.15 mg/kg) it was 15%. Besides, the “Percent inhibition (blood glucose vs control)” value is on record as 21% in assay [6] (7 days oral 1 mg/kg) and 11% in assay [6] (7 days oral 40 mg/kg). Further, the “Percent inhibition (blood glucose AUC, oral sucrose tolerance test)” value in assay [8] (single oral dose 0.3 mg/kg) is reported as 12%. Moreover, the Fat mass stood at 3.67 ± 0.12 g in assay [2] (0.3 mg/kg) and 3.29 ± 0.21 g in assay [2] (3 mg/kg). Further, the “% reduction (fat mass)” value is −1.65% in assay [2] (0.3 mg/kg) and 8.71% in assay [2] (3 mg/kg).

Turning to `CCC1=C(C)CN(C(=O)NCCc2ccc(S(=O)(=O)NC(=O)N[C@H]3CC[C@H](C)CC3)cc2)C1=O` [Glimepiride, glimepiride], the “Percent inhibition (blood glucose AUC, OGTT)” value was −3.69% in assay [7] (single oral dose 0.02 mg/kg) and 10.9% in assay [7] (single oral dose 0.32 mg/kg).

As for `CN(C)C(=N)N=C(N)N` [Metformin, metformin, reference compound], the “ED30 ± (SEM)” value in assay [3] was 29.6 mg/kg and 30 mg/kg and 29.6 ± 6.68 mg/kg. Also, the “Percent inhibition (blood glucose AUC, OGTT)” value was found to be 7.43% in assay [3] (single oral dose 10 mg/kg); 29.06% in assay [3] (single oral dose 30 mg/kg); 54.46% in assay [3] (single oral dose 100 mg/kg); 7% in assay [4] (single administration 7.5 mg/kg); 11% in assay [4] (single administration 15 mg/kg). The results for the “Percent inhibition (plasma glucose vs control)” value in assay [5] (2-week repeated administration 7.5 mg/kg) and in assay [5] (2-week repeated administration 15 mg/kg) were 13% and 14%, respectively.

Regarding `OCC(CO)N[C@H]1C[C@](O)(CO)[C@@H](O)[C@H](O)[C@H]1O` [Voglibose, voglibose], the “Percent inhibition (blood glucose AUC, oral sucrose tolerance test)” value turned out to be 1% in assay [8] (single oral dose 0.009 mg/kg) and 53% in assay [8] (single oral dose 0.054 mg/kg).

`CN(CCOc1ccc(CC2SC(=O)NC2=O)cc1)c1ccccn1` (stereo not shown) [Rosiglitazone, rosiglitazone, reference compound]: the “Percent inhibition (blood glucose vs control)” value in assay [6] (7 days oral 0.4 mg/kg) was found to be 10%.
